SMILES strings stand for the structures.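 Cultured in 96-well plates, cells were exposed to test compound for 48 hours across five concentrations. At the GI50, growth is halved.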 Calls of active or inactive are those of the source. Cut-off read from the data, not from the text of the source: active = GI50 up to about 1.1 µM and inactive = higher.

Among the test systems are TK-10; SK-MEL-2; NCI-H226; Malme-3M; NCI/ADR-RES; MDA-MB-231; UACC-62; BT-549; PC-3; HCC 2998; HOP-62; OVCAR-3; SNB-19; U-251; RPMI-8226; EKVX; MOLT-4; HT-29; HOP-92.
Common to all, as to assay: NCI tumour cell line growth inhibition, 48 h

`Nc1c(OCC(=O)O)ccc2cc(S(=O)(=O)O)ccc12`: the GI50 in the assay on TK-10, with SK-MEL-2, with NCI-H226, with Malme-3M, in the assay on NCI/ADR-RES and in the assay on MDA-MB-231 was > 100 µM (inactive) in each case. Further, the GI50 in the assay on UACC-62, with BT-549, in the assay with PC-3, in the assay on HCC 2998, in the assay on HOP-62 and in the assay with OVCAR-3 was > 100 µM (inactive) throughout. The GI50 with SNB-19, in the assay on U-251 and in the assay on RPMI-8226 was > 100 µM (inactive) in each case.

With `COc1nc(C(=O)NNC(=O)c2nc(OC)c3ccccc3c2-c2ccccc2)c(-c2ccccc2)c2ccccc12`, the GI50 with TK-10, with SK-MEL-2, in the assay with NCI-H226, in the assay on Malme-3M, with NCI/ADR-RES and in the assay with MDA-MB-231 was > 100 µM (inactive) in each case. The GI50 with UACC-62, with BT-549, in the assay on PC-3, with HCC 2998, in the assay with HOP-62 and in the assay with EKVX was > 100 µM (inactive) each time. Also, the GI50 in the assay with MOLT-4, in the assay on OVCAR-3, in the assay on SNB-19, in the assay on U-251, in the assay with HT-29 and in the assay on RPMI-8226 was > 100 µM (inactive) in each case.

As for `Cc1nc(N)nc2ccccc12`, the GI50 in the assay on TK-10 was > 100 µM (inactive); in the assay on SK-MEL-2, > 100 µM (inactive); in the assay on NCI-H226, 0.172 µM (active); in the assay with Malme-3M it was > 100 µM (inactive); with NCI/ADR-RES, > 100 µM (inactive); in the assay on HOP-92, > 100 µM (inactive). The GI50 in the assay with MDA-MB-231 was > 100 µM (inactive); in the assay with UACC-62, > 100 µM (inactive); with BT-549, > 100 µM (inactive); in the assay with PC-3, > 100 µM (inactive); in the assay on HOP-62 it was > 100 µM (inactive); in the assay on EKVX, 44.8 µM (inactive). In addition, the GI50 with MOLT-4, in the assay on OVCAR-3, in the assay with SNB-19, in the assay with U-251, in the assay with HT-29 and in the assay with RPMI-8226 was > 100 µM (inactive) in each case.

Consider `c1cn(C23C4C5C6C4C2C6C53)cn1` (centres undefined), for which the GI50 in the assay with TK-10, in the assay on SK-MEL-2, in the assay with NCI-H226, in the assay on NCI/ADR-RES, with MDA-MB-231 and with BT-549 was > 100 µM (inactive) in each case. The GI50 in the assay on PC-3, with HCC 2998, with HOP-62, in the assay with EKVX, in the assay with MOLT-4 and in the assay on SNB-19 was > 100 µM (inactive) throughout. Besides, the GI50 in the assay on U-251, in the assay on HT-29 and with RPMI-8226 was > 100 µM (inactive) in each case.

Consider `Cc1ccc(S(=O)(=O)OCC(=O)O)cc1`, for which the GI50 with TK-10, with SK-MEL-2, in the assay on Malme-3M, in the assay on NCI/ADR-RES, with HOP-92 and in the assay on MDA-MB-231 was > 100 µM (inactive) each time. Also, the GI50 with UACC-62, in the assay on BT-549, in the assay on PC-3, in the assay on HOP-62, in the assay on EKVX and in the assay with MOLT-4 was > 100 µM (inactive) throughout. Moreover, the GI50 with OVCAR-3, in the assay with SNB-19, with U-251, in the assay with HT-29 and in the assay with RPMI-8226 was > 100 µM (inactive) throughout.

As for `O=[N+]([O-])/C(C(Cl)=C(Cl)Cl)=C(\NCc1ccccc1)Sc1ccccc1`, the GI50 is 25.1 µM (inactive) with SK-MEL-2; 27.8 µM (inactive) with NCI-H226; 16.8 µM (inactive) in the assay with Malme-3M; 24.5 µM (inactive) in the assay on NCI/ADR-RES; 40.7 µM (inactive) with MDA-MB-231; 30.4 µM (inactive) in the assay on UACC-62. The GI50 in the assay on BT-549 is 17.3 µM (inactive); with PC-3, 27.5 µM (inactive); in the assay with HCC 2998 it was 34.9 µM (inactive); in the assay with HOP-62 it was 24 µM (inactive); in the assay on EKVX, 38.4 µM (inactive); with MOLT-4, > 100 µM (inactive). Also, the GI50 in the assay on OVCAR-3 was 17.6 µM (inactive); with SNB-19 it was 41.2 µM (inactive); in the assay with U-251, 32.3 µM (inactive); with HT-29 it was 38.9 µM (inactive); in the assay on RPMI-8226, 34.7 µM (inactive).

For the molecule `CNC(=O)CNC(=O)N(C[C@@H]1CCCN1C(=O)[C@H](CC(C)C)NC(=O)OC(C)(C)C)C(C)C`, the GI50 in the assay with SK-MEL-2, in the assay with NCI-H226, in the assay with Malme-3M, with NCI/ADR-RES, with MDA-MB-231 and in the assay on UACC-62 was > 100 µM (inactive) in each case. The GI50 with BT-549, in the assay on PC-3, in the assay on HCC 2998, in the assay on HOP-62, in the assay on EKVX and with MOLT-4 was > 100 µM (inactive) each time. The GI50 in the assay on OVCAR-3, in the assay on SNB-19, with U-251, with HT-29 and with RPMI-8226 was > 100 µM (inactive) each time.

With `CN(N)c1cc(=O)[nH]c(=O)[nH]1`, the GI50 in the assay with TK-10, with NCI-H226, in the assay with Malme-3M, in the assay with NCI/ADR-RES, in the assay on MDA-MB-231 and with UACC-62 was > 100 µM (inactive) throughout. Also, the GI50 in the assay with BT-549 is 0.03 µM (active); with PC-3 it was > 100 µM (inactive); in the assay on HCC 2998 it was > 100 µM (inactive); in the assay with HOP-62, > 100 µM (inactive); in the assay with EKVX, > 100 µM (inactive); in the assay with MOLT-4, > 100 µM (inactive). Further, the GI50 with OVCAR-3, in the assay on SNB-19, in the assay with HT-29 and in the assay on RPMI-8226 was > 100 µM (inactive) in each case.

Take `C[C@@H]1CC(=O)C[C@@H]2CC[C@H]3[C@@H]4CC[C@H](OC(=O)c5cccc6cc7ccccc7nc56)[C@H]4CC[C@@H]3[C@H]21`: the GI50 was 27.9 µM (inactive) in the assay on TK-10; 17.1 µM (inactive) in the assay on SK-MEL-2; 26.5 µM (inactive) in the assay on NCI-H226; 8.71 µM (inactive) in the assay with Malme-3M; 20.9 µM (inactive) with NCI/ADR-RES; 23.3 µM (inactive) in the assay on HOP-92. The GI50 with MDA-MB-231 is 15.9 µM (inactive); in the assay with UACC-62, 13.3 µM (inactive); with BT-549, 26.1 µM (inactive); with PC-3 it was 12.1 µM (inactive); with HOP-62, 22.8 µM (inactive); in the assay on EKVX it was 16.7 µM (inactive). For the same molecule, the GI50 was 3.48 µM (inactive) in the assay on MOLT-4; 15.2 µM (inactive) with OVCAR-3; 17.7 µM (inactive) with SNB-19; 7.11 µM (inactive) with U-251; 15.8 µM (inactive) in the assay with HT-29.

`O=C(O)c1ccccc1NCn1c(=S)sc2ccccc21`: the GI50 is 94.6 µM (inactive) with TK-10; > 100 µM (inactive) with SK-MEL-2; 35.5 µM (inactive) in the assay with Malme-3M; > 100 µM (inactive) in the assay on NCI/ADR-RES; > 100 µM (inactive) with HOP-92; 51.8 µM (inactive) with MDA-MB-231. For the same molecule, the GI50 with UACC-62 was 44.3 µM (inactive); in the assay on BT-549, > 100 µM (inactive); in the assay on PC-3, 45.6 µM (inactive); in the assay on HOP-62, 45.1 µM (inactive); with EKVX, > 100 µM (inactive); in the assay on MOLT-4, 35.1 µM (inactive). Further, the GI50 with OVCAR-3 was 30.6 µM (inactive); in the assay on SNB-19, 76.7 µM (inactive); with U-251 it was 47.3 µM (inactive); in the assay with HT-29 it was 59.8 µM (inactive); in the assay on RPMI-8226 it was 32.3 µM (inactive).

Consider `C/C(=C\Cc1ccc(F)cc1)CCCCCC/C(C)=C/Cc1ccc(F)cc1`, for which the GI50 was 15.5 µM (inactive) in the assay on TK-10; 16.9 µM (inactive) in the assay on SK-MEL-2; 11.9 µM (inactive) with NCI/ADR-RES; 10.2 µM (inactive) in the assay on HOP-92; 17.9 µM (inactive) in the assay with MDA-MB-231; 16.6 µM (inactive) in the assay on UACC-62. Also, the GI50 was 28.6 µM (inactive) in the assay with BT-549; 15.8 µM (inactive) in the assay on PC-3; 10.5 µM (inactive) in the assay on HOP-62; 14.9 µM (inactive) with EKVX; 17.7 µM (inactive) with MOLT-4; 22.9 µM (inactive) with OVCAR-3. For the same molecule, the GI50 in the assay with SNB-19 was 32.9 µM (inactive); in the assay on U-251, 18.1 µM (inactive); in the assay on HT-29, 16.1 µM (inactive).

As to `C=CCN(C(=O)OC(C)(C)C)C1=CC2C(C)=CN(S(=O)(=O)c3ccccc3)C2C(OCc2ccccc2)=C1` (centres undefined), the GI50 in the assay with TK-10, in the assay on SK-MEL-2, in the assay on NCI-H226, with Malme-3M, in the assay on NCI/ADR-RES and with MDA-MB-231 was > 100 µM (inactive) in each case. Also, the GI50 in the assay on UACC-62, in the assay with BT-549, in the assay with PC-3, in the assay with HCC 2998, in the assay with HOP-62 and in the assay on EKVX was > 100 µM (inactive) throughout. For the same molecule, the GI50 in the assay with MOLT-4 was > 100 µM (inactive); in the assay on OVCAR-3, > 100 µM (inactive); in the assay on U-251, > 100 µM (inactive); in the assay on HT-29, 13.4 µM (inactive); with RPMI-8226, > 100 µM (inactive).

The values above are taken from ChEMBL document CHEMBL1201862, “PubChem BioAssay data set” (2004).
